Several values for one entry are separate records, joined by “and”; a condition that tells them apart may be missing. Equal entries are not always repeated. Results filed as inconclusive are left out.
Tested on: HT29 intrarenal xenograft, nude mice, tumor weight change
Test: NCI In Vivo Anticancer Drug Screen. Data for tumor model HT29;CX-1 Human Adenocarcinoma (MER+) (intrarenal inoculation) in NU/NU BALB/C (nude) mice
Conditions: endpoint: mean tumor weight change, higher = larger tumour
Description: The antitumor activity of compounds was measured in mice bearing transplantable tumors. Survival or tumor size were measured and the results are expressed as the measurement made in the treated group (T) divided by the measurement made in the vehicle treated control group (C). The tumor model used in this assay is HT29;CX-1 Human Adenocarcinoma (MER+) (intrarenal inoculation) in NU/NU BALB/C (nude) mice

[1] = dose: 150.0 mg/kg/injection, schedule: Q04DX004 (sc), vehicle: saline with Tween-80
[2] = dose: 300.0 mg/kg/injection, schedule: Q04DX004 (sc), vehicle: saline with Tween-80
[3] = dose: 600.0 mg/kg/injection, schedule: Q04DX004 (sc), vehicle: saline with Tween-80
[4] = dose: 1200.0 mg/kg/injection, schedule: Q04DX004 (sc), vehicle: saline with Tween-80

O=C1c2ccccc2C(=O)c2c1cn1c2Cc2ccccc2C1
T/C (dose: 37.5 mg/kg/injection, schedule: Q04DX004 (ip), vehicle: Klucel (hydroxypropylcellulose) (HPC)): 908 % of control | T/C (dose: 75.0 mg/kg/injection, schedule: Q04DX004 (ip), vehicle: Klucel (hydroxypropylcellulose) (HPC)): 537 % of control | T/C (dose: 150.0 mg/kg/injection, schedule: Q04DX004 (ip), vehicle: Klucel (hydroxypropylcellulose) (HPC)): 753 % of control | T/C (dose: 300.0 mg/kg/injection, schedule: Q04DX004 (ip), vehicle: Klucel (hydroxypropylcellulose) (HPC)): 188 % of control | T/C (dose: 600.0 mg/kg/injection, schedule: Q04DX004 (ip), vehicle: Klucel (hydroxypropylcellulose) (HPC)): 450 % of control

O=C(CCCCCCC(=O)ON1C(=O)CCC1=O)ON1C(=O)CCC1=O
T/C [1]: 25 % of control | T/C [2]: 50 % of control | T/C [3]: 93 % of control | T/C [4]: 77 % of control

C(CSC1=NCCN1)CSC1=NCCN1
T/C (dose: 25.0 mg/kg/injection, schedule: Q01DX010 (sc), vehicle: saline): 78 % of control | T/C (dose: 100.0 mg/kg/injection, schedule: Q01DX010 (sc), vehicle: saline): 66 % of control | T/C (dose: 200.0 mg/kg/injection, schedule: Q01DX010 (sc), vehicle: saline): 46 % of control

NC(Cc1ccc(N(CCCl)CCCl)cc1)C(=O)O (centres undefined)
T/C (dose: 5.0 mg/kg/injection, schedule: Q04DX004 (sc), vehicle: saline): 46 % of control | T/C (dose: 10.0 mg/kg/injection, schedule: Q04DX004 (sc), vehicle: saline): 106 % of control | T/C (dose: 20.0 mg/kg/injection, schedule: Q04DX004 (sc), vehicle: saline): 47 % of control

COc1cc(C2c3cc4c(cc3C(O)C(CO)C2CO)OCO4)cc(OC)c1OC (centres undefined)
T/C (dose: 200.0 mg/kg/injection, schedule: Q04DX004 (sc), vehicle: saline with Tween-80): 72 % of control | T/C (dose: 400.0 mg/kg/injection, schedule: Q04DX004 (sc), vehicle: saline with Tween-80): 49 % of control | T/C (dose: 800.0 mg/kg/injection, schedule: Q04DX004 (sc), vehicle: saline with Tween-80): 96 % of control | T/C (dose: 1600.0 mg/kg/injection, schedule: Q04DX004 (sc), vehicle: saline with Tween-80): 30 % of control

Cn1cnc([N+](=O)[O-])c1S(=O)(=O)NCN1CCOCC1
T/C (dose: 100.0 mg/kg/injection, schedule: Q01DX010 (sc), vehicle: Klucel (hydroxypropylcellulose) (HPC)): 80 % of control

COc1nc(=O)n(C2C=CC(=O)O2)cc1F (centres undefined)
T/C (dose: 75.0 mg/kg/injection, schedule: Q04DX004 (sc), vehicle: suspension in saline): 52 % of control | T/C (dose: 150.0 mg/kg/injection, schedule: Q04DX004 (sc), vehicle: suspension in saline): 122 % of control

CO[C@H]1C[C@](C)(O)Cc2cc3c(c(O)c21)C(=O)c1c(O)cc2c(c1C3=O)O[C@@H]1O[C@@]2(C)[C@H](O)[C@@H](N(C)C)[C@@H]1O
T/C (dose: 6.25 mg/kg/injection, schedule: Q01DX010 (sc), vehicle: other): 65 % of control | T/C (dose: 12.5 mg/kg/injection, schedule: Q01DX010 (sc), vehicle: other): 76 % of control

COc1ccc2c(NCCCCCCCCNc3c4ccccc4nc4cc(OC)ccc34)c3ccccc3nc2c1
T/C (dose: 31.25 mg/kg/injection, schedule: Q04DX004 (sc), vehicle: suspension in saline): 65 % of control | T/C (dose: 62.5 mg/kg/injection, schedule: Q04DX004 (sc), vehicle: suspension in saline): 72 % of control | T/C (dose: 125.0 mg/kg/injection, schedule: Q04DX004 (sc), vehicle: suspension in saline): 47 % of control | T/C (dose: 250.0 mg/kg/injection, schedule: Q04DX004 (sc), vehicle: suspension in saline): 73 % of control

Cc1cnc(/C=N\NC(N)=S)c2cccc(N)c12
T/C (dose: 125.0 mg/kg/injection, schedule: Q04DX004 (ip), vehicle: saline with Tween-80): 92 % of control

CO[C@H](/C(C)=C/C=C/C(C)=C/c1coc(C)n1)[C@H](C)[C@H]1C[C@@H](O)[C@@]2(C)O[C@H]2/C=C/[C@@H](C)[C@@H]2C[C@@H](CC(=O)O2)C[C@H]2O[C@@H]2C(=O)O1
T/C (dose: 0.13 mg/kg/injection, schedule: Q04DX004 (sc), vehicle: Klucel (hydroxypropylcellulose) (HPC)): 73 % of control and 88 % of control | T/C (dose: 1.0 mg/kg/injection, schedule: Q04DX004 (sc), vehicle: Klucel (hydroxypropylcellulose) (HPC)): 57 % of control

O=[N+]([O-])c1ccc(N2CCOCC2)c2c1no[n+]2[O-]
T/C (dose: 75.0 mg/kg/injection, schedule: Q04DX004 (sc), vehicle: saline with Tween-80): 88 % of control | T/C [1]: 116 % of control | T/C [2]: 156 % of control | T/C [3]: 83 % of control

CN(C)CCOc1ccc2c(c1)C/C(=C/c1ncc([N+](=O)[O-])n1C)C2=O
T/C [2]: 89 % of control | T/C [3]: 33 % of control | T/C [4]: 69 % of control | T/C (dose: 2400.0 mg/kg/injection, schedule: Q04DX004 (sc), vehicle: saline with Tween-80): 65 % of control

— PubChem BioAssay AID208 (DTP/NCI, 2004)
